The values below come from patent US9441012B2, “Fluorinated epoxyketone-based compounds and uses thereof as proteasome inhibitors” (FLUORINOV PHARMA INC., priority 2012, dated 2016).

SMILES strings stand for the structures. Where only a bound is given, the exact number is not on record here.

The subject of this test is EKVX. The experiment in a line: NCI 60 human tumor cell line screen (SRB). The class given is cell-based. The following applies: EKVX (Non-Small Cell Lung Cancer); 48 h.

As to `Cc1ncc(C(=O)N[C@@H](COC(F)F)C(=O)N[C@@H](COC(F)F)C(=O)N[C@@H](Cc2ccccc2)C(=O)[C@@]2(C)CO2)s1` [Example 1, 2-methyl-thiazole-5-carboxylic acid ((S)-1-{(S)-1-[(S)-1-benzyl-2-((R)-2-methyloxiranyl)-2-oxo-ethylcarbamoyl]-2-difluoromethoxyethylcarbamoyl}-2-difluoromethoxyethyl)-amide], the Log10GI50 is given as −6.22, the Log10LC50 is on record as >−4.00 and the Log10TGI50 is given as >−4.00.
